Laboratory results taken from patent publication US6858585B1, “Cyclic depsipeptides and drugs containing the same as the active ingredient” (Nisshin Seifun Group Inc., priority 1996, dated 2005).
No end group written: not given here.

Tests used:
Format in all cases: cell-based, human
[1] = system: apolipoprotein E production in Hep G2 cells; assay: Production of apolipoprotein E in Hep G2 cells, enzyme immunoassay of cultured broth (Example 2: 7 h with compound); conditions: Conc. 1 μM, control = 100
Procedure: The mouse antihuman apolipoprotein E monocional antibody (manufactured by BYOSIS, S. A., France) was dissolved in a 0.05M aqueous sodium hydrogencarbonate solution (pH 9.5) at a concentration of […]. 50 μl of this solution was poured in portions into a Nunk immunoplate, which was then allowed to stand at 4° C. for 16 hours. After washing thrice with 300 μl of PBS, 300 μl of the blocking solution was added and the mixture was allowed to stand at 37° C. for 2 hours.
It was again washed three times with 300 μl of PBS, 50 μl of the above cultured broth 1 was added and the mixture was allowed to stand at room temperature for 2 hours. After washing three times with 300 μl of PBS-T, 50 μl of a 3000-fold diluted solution (10% aqueous Block Ace solution) of goat anti-apolipoprotein E polyclonal antibody (manufactured by Chemicon Co., Ltd., U.S.A.) was added and the mixture was allowed to stand at room temperature for 2 hours. […] The reaction was discontinued by the addition of 100 μl of 2N sulfuric acid, and absorbance at 490 nm was measured using absorbance at 650 nm as a control. An absolute amount of apolipoprotein E in cultured broths 1-6 was determined upon a calibration curve drawn up when a commercially available apolipoprotein E (Chemicon Co., Ltd., U.S.A.) was used as a standard. […]

[2] = system: apolipoprotein B production in Hep G2 cells; assay: Production of apolipoprotein B in Hep G2 cells, enzyme immunoassay of cultured broth (Example 2); conditions: Conc. 1 μM, 7 hours, control = 100
Procedure: (§1) First, 1 ml portions of Hep G2 cells at 1×10^5 cells/ml suspended in D-MEM medium containing 10% fetal bovine serum were poured into a 24-well tissue culture plate and cultivation was carried out at 37° C. under atmosphere of a mixed gas composed of 5% carbon dioxide and 95% air for 3 days. Thereafter, the medium was removed by means of a pipette, 1 ml of fresh D-MEM medium was added and cultivation was again carried out at 37° C. under atmosphere of a mixed gas composed of 5% carbon dioxide and 95% air for one day. Then, the medium was removed by means of a pipette and washed three times with 0.5 ml of fresh D-MEM medium. […]
The sheep antihuman apolipoprotein B IgG fraction (manufactured by Bindingsite Co., Ltd., U.K.) was dissolved in a 0.05M aqueous sodium hydrogencarbonate solution (pH 9.5) at a concentration of 10 μg/ml. […] The reaction was discontinued by the addition of 100 μl of 2N sulfuric acid, and absorbance at 490 nm was measured using absorbance at 650 nm as a control. The absorbance obtained was defined as that of apolipoprotein B. An absolute amount of apolipoprotein B was determined upon a calibration curve drawn up when a commercially available low density lipoprotein (manufactured by Sigma, U.S.A.) was used as a standard. […]

[3] = system: apolipoprotein A1 production in Hep G2 cells; assay: Production of apolipoprotein A1 in Hep G2 cells, enzyme immunoassay of cultured broth (Example 2); conditions: Conc. 1 μM, 7 hours, control = 100
Procedure: as §1, with “medium. 1 ml of fresh D-MEM medium was added and further 10 μl of a solution of the cyclic depsipeptide of the invention or Compound 1, 4, 5, 6, 7 or 8 dissolved in methanol at the concentration as shown in Table 3 was added.” for “medium.”
It was again washed three times with 300 μl of PBS, 100 μl of the above Cultured Broths 7-10 was added and the mixture was allowed to stand at room temperature for 2 hours. […] The reaction was discontinued by the addition of 100 μl of 2N sulfuric acid, and absorbance at 490 nm was measured using absorbance at 650 nm as a control. An absolute amount of apolipoprotein A1 was determined upon a calibration curve drawn up when a commercially available apolipoprotein Al (manufactured by Sigma, U.S.A.) was used as a standard. […]

Substance: Compound 7 (QLLVDLI; ester (positions not given here); also: cyclic depsipeptide, ring closure places not given here)
- Relative amount of apolipoprotein E (%) [1]: 163%
- Relative amount of apolipoprotein B (%) [2]: 76%
- Relative amount of apolipoprotein A1 (%) [3]: 135%
